Patent publication US20260256751A1, “COMBINATION OF BETA-2-ADRENERGIC RECEPTOR AGONISTS AND GLP-1 RECEPTOR AGONISTS FOR USE IN TREATING HYPERGLYCAEMIA” (ATROGI AB, priority 2023, published 2026)

Columns and labels:
[1] = tested on: differentiated L6-myotubes; experiment: Glucose uptake screen (Biological example 1 of WO 2019/053427); type: cell-based; conditions: compound at 10 μM, activity relative to isoproterenol at 10 μM, read-out: Biological example 1 of WO 2019/053427 (GU)
How it was run: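 Rat L6 myoblasts were differentiated into myotubes over 7 days in 2% FBS, then serum-starved overnight. Cells were stimulated with 1×10^−5 M compound plus β2 antagonist ICI-118551 for 1 h 40 min and re-dosed for 20 min in glucose-free medium. Uptake of 50 nM ^3H-2-deoxyglucose over 10 min was counted after NaOH lysis.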

[2] = tested on: differentiated L6-myotubes; experiment: cAMP production relative to isoprenaline (Biological example 2 of WO 2019/053427); type: cell-based; conditions: 0.25 h, compound at 10 μM, activity relative to isoproterenol at 10 μM
How it was run: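 Differentiated L6 myotubes stimulated 15 min with test compound or isoprenaline, each at final 1×10^−5 M, in HBSS with 1% BSA, 5 mM HEPES, 1 mM IBMX, pH 7.4. cAMP production by the compound expressed relative to that induced by the same concentration of isoprenaline.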

SMILES | Emax at 10 µM [1] | Emax at 10 µM [2]
CC(=O)N[C@H]1CC[C@H](CC(C)(C)NC[C@H](O)c2cccc(C(F)(F)F)n2)CC1 [Compound 460, N-[(1S,4r)-4-(2-{(S)-2-hydroxy-2-[6-(trifluoromethyl)-2-pyridyl]ethylamino}-2-methylpropyl)cyclohexyl]acetamide] | 50 to 75% | < 25%
CC1(C)CC[C@H]([C@H](O)c2cncc(O)c2)N1 [Compound 167, 5-{(R)-[(R)-5,5-dimethyl-2-pyrrolidinyl]hydroxymeth-yl}-3-pyridinol] | 50 to 75% | < 25%
CCC[C@@H]1CCC[C@H]([C@@H](O)c2cccc(F)c2)N1 [Compound 60, (S)-[(2R,6R)-6-propyl-2-piperidyl](m-fluorophenyl)methanol] | 25 to 50% | < 25%
CC12CCC([C@H](O)c3ccccc3Cl)(CC1)N2 [Compound 195, (R)-(o-chlorophenyl)(4-methyl-7-azabicyclo[2.2.1]hept-1-yl)methanol] | > 75% | < 25%
CCCCNCC(O)c1cc(F)cc(F)c1 (stereo not shown) [Compound 55, 2-(butylamino)-1-(3,5-difluorophenyl)-1-ethanol] | 50 to 75% | < 25%
CCCC(C)NCC(O)c1cccc(O)c1 (stereo not shown) [Compound 14, 1-(m-hydroxyphenyl)-2-(1-methylbutylamino)-1-ethanol] | > 75% | < 25%
CCC[C@@H]1CCC[C@H]([C@@H](O)c2ccccc2F)N1 [Compound 107, (S)-[(2R,6R)-6-propyl-2-piperidyl](o-fluorophenyl)methanol] | 25 to 50% | < 25%
CCC[C@@H]1CCC[C@H]([C@@H](O)c2cccc(O)c2)N1 [Compound 137, (S)-[(2R,6R)-6-propyl-2-piperidyl](m-hydroxyphenyl)methanol] | 25 to 50% | < 25%
CC1(C)CCC[C@H]([C@H](O)c2cccc(F)c2)N1 [Compound 102, (R)-[(R)-6,6-dimethyl-2-piperidyl](m-fluorophenyl)methanol] | 50 to 75% | < 25%
CCCC(C)NCC(O)c1ccc(Cl)c(O)c1 (stereo not shown) [Compound 35, 1-(4-chloro-3-hydroxyphenyl)-2-(1-methylbutylamino)-1-ethanol] | > 75% | < 25%
CC(=O)N[C@H]1CC[C@@H](CNC[C@H](O)c2cncc(F)c2)CC1 [Compound 310, N-[(1S,4s)-4-{[(R)-2-(5-fluoro-3-pyridyl)-2-hydroxyethylamino]methyl}cyclohexyl]acetamide] | 25 to 50% | < 25%
CC1(C)CCC[C@H]([C@H](O)c2cccc(Cl)c2)N1 [Compound 165, (R)-[(R)-6,6-dimethyl-2-piperidyl](m-chlorophenyl)methanol] | 25 to 50% | < 25%
CCC[C@H]1CCCC[C@@H]([C@@H](O)c2cncc(F)c2)N1 [Compound 235, (S)-[(2S,7S)-7-propyl-2-azepanyl](5-fluoro-3-pyridyl)methanol] | < 25% | < 25%
CCC[C@H]1CCC[C@H]([C@H](O)c2cccc(Cl)c2)N1 [Compound 128, (R)-[(2R,6S)-6-propyl-2-piperidyl](m-chlorophenyl)methanol] | 25 to 50% | < 25%
CC1(C)CCC[C@H]([C@H](O)c2ccccc2Cl)N1 [Compound 162, (R)-[(R)-6,6-dimethyl-2-piperidyl](o-chlorophenyl)methanol] | 25 to 50% | < 25%
CC(C)(C)NC[C@H](O)c1cncc(O)c1 [Compound 100, 5-[(R)-2-(tert-butylamino)-1-hydroxyethyl]-3-pyridinol] | > 75% | < 25%
O[C@H](c1cccc(F)c1)C12CCC(Cc3ccc(F)cc3)(CC1)N2 [Compound 413, (R)-(m-florophenyl){4-[(p-fluorophenyl)methyl]-7-azabicyclo[2.2.1]hept-1-yl}methanol] | > 75% | < 25%
CCC[C@@H]1CC[C@H]([C@@H](O)c2cccc(F)c2)N1 [Compound 126, (S)-[(2R,5R)-5-propyl-2-pyrrolidinyl](m-fluorophenyl)methanol] | 25 to 50% | < 25%
CC(C)(C)NC[C@H](O)c1cccc(C(F)(F)F)n1 [Compound 397, (S)-2-(tert-butylamino)-1-[6-(trifluoromethyl)-2-pyridyl]-1-ethanol] | > 75% | < 25%

SMILES | Emax at 10 µM [1] | Emax at 10 µM [2]
CC(C)(C[C@H]1CC[C@H](C(=O)O)CC1)NC[C@H](O)c1cncc(F)c1 [Compound 356, (1R,4r)-4-{2-[(R)-2-(5-fluoro-3-pyridyl)-2-hydroxyethylamino]-2-methylpropyl}cyclohexanecarboxylic acid] | < 25% | < 25%
CC(=O)N[C@H]1CC[C@H](CC(C)(C)NC[C@H](O)c2cncc(F)c2)CC1 [Compound 357, N-[(1R,4r)-4-{2-[(R)-2-(5-fluoro-3-pyridyl)-2-hydroxyethylamino]-2-methylpropyl}cyclohexyl]acetamide] | > 75% | < 25%
O[C@@H](CNC[C@H]1CC[C@H](O)CC1)c1cncc(F)c1 [Compound 274, (R)-1-(5-fluoro-3-pyridyl)-2-({[(1r,4R)-4-hydroxycyclohexyl]meth-yl}amino)-1-ethanol] | < 25% | < 25%
CCC[C@H](C)NC[C@H](O)c1ccc(F)cc1 [Compound 53, (R)-2-[(S)-1-methylbutylamino]-1-(p-fluorophenyl)-1-ethanol] | 50 to 75% | < 25%
CCC[C@@H]1CC[C@H]([C@H](O)c2cccc(O)c2)N1 [Compound 57, m-{(R)-[(2R,5R)-5-propyl-2-pyrrolidinyl]hydroxymeth-yl}phenol] | > 75% | 50 to 75%
CC12CCC([C@@H](O)c3cncc(F)c3)(CC1)N2 [Compound 184, (S)-(5-fluoro-3-pyridyl)(4-methyl-7-azabicyclo[2.2.1]hept-1-yl)methanol] | 50 to 75% | < 25%
CN([C@H]1CC[C@H](CC(C)(C)NC[C@H](O)c2cccc(F)c2)CC1)S(C)(=O)=O [Compound 499, (R)-2-{1,1-dimethyl-2-[(1r,4R)-4-(N-mesyl-N-methylamino)cyclohexyl]ethylamino}-1-(m-fluorophenyl)-1-ethanol] | 25 to 50% | < 25%
CCC[C@@H]1CCC[C@@H]([C@@H](O)c2cccc(Cl)c2)N1 [Compound 114, (S)-[(2S,6R)-6-propyl-2-piperidyl](m-chlorophenyl)methanol] | 25 to 50% | < 25%
CC12CC(C1)[C@H]([C@@H](O)c1cncc(F)c1)N2 [Compound 222, (S)-{(R)-1-methyl-2-azabicyclo[2.1.1]hex-3-yl}(5-fluoro-3-pyridyl)methanol] | < 25% | < 25%
CC1(C)CC[C@@H]([C@@H](O)c2cccc(O)c2)N1 [Compound 143, m-{(S)-[(S)-5,5-dimethyl-2-pyrrolidinyl]hydroxymeth-yl}phenol] | < 25% | < 25%
CCCCNCC(O)c1cc(Cl)c(O)c(Cl)c1 (stereo not shown) [Compound 23, 2-(butylamino)-1-(3,5-dichloro-4-hydroxyphenyl)-1-ethanol] | < 25% | < 25%
CC(C)(C[C@H]1CC[C@H](S(N)(=O)=O)CC1)NC[C@H](O)c1cccc(F)c1 [Compound 516, (1R,4r)-4-{2-[(R)-2-(m-fluorophenyl)-2-hydroxyethylamino]-2-methylpropyl}cyclohexanesulfonamide] | > 75% | < 25%
CC1(C)CC[C@H]([C@H](O)c2cncc(F)c2)N1 [Compound 157, (R)-[(R)-5,5-dimethyl-2-pyrrolidinyl](5-fluoro-3-pyridyl)methanol] | > 75% | < 25%
CC1(C)CCC[C@H]([C@@H](O)c2cccc(Cl)c2)N1 [Compound 164, (S)-[(R)-6,6-dimethyl-2-piperidyl](m-chlorophenyl)methanol] | 50 to 75% | < 25%
O[C@H](c1cccc(F)c1)[C@H]1CCC2(CCCC2)N1 [Compound 168] | 50 to 75% | 25 to 50%
CC(C)(NC[C@H](O)c1cncc(F)c1)[C@H]1CC[C@H](C(=O)O)CC1 [Compound 390, (1R,4r)-8-[(R)-2-(5-fluoro-3-pyridyl)-2-hydroxyethylamino]-7-hydroxy-p-menthan-7-one] | 50 to 75% | < 25%
CC(C)(NC[C@H](O)c1cncc(F)c1)[C@H]1CC[C@H](NS(C)(=O)=O)CC1 [Compound 345, (R)-1-(5-fluoro-3-pyridyl)-2-{1-methyl-1-[(1r,4R)-4-(mesylamino)cyclohexyl]ethylamino}-1-ethanol] | 25 to 50% | < 25%
CC(C)CS(=O)(=O)N[C@H]1CC[C@H](CC(C)(C)NC[C@H](O)c2cncc(F)c2)CC1 [Compound 526, (R)-2-{1,1-dimethyl-2-[(1r,4R)-4-(isobutylsulfonylamino)cyclohexyl]ethylamino}-1-(5-fluoro-3-pyridyl)-1-ethanol] | 50 to 75% | < 25%
CC1(C)CCC[C@H]([C@@H](O)c2ccccc2Cl)N1 [Compound 163, (S)-[(R)-6,6-dimethyl-2-piperidyl](o-chlorophenyl)methanol] | > 75% | < 25%
